Results published in patent US9771337B2, “Neprilysin inhibitors” (THERAVANCE BIOPHARMA R&D IP, LLC, priority 2011, dated 2017).

Molecular target: T1, human NEP (Homo sapiens, UniProt P08473)
T1 construct: purchased R&D Systems, Minneapolis, Minn; 1182-ZN
Assay: In vitro enzyme inhibition assay, inhibitor potency at human NEP
Type: biochemical
Settings: pKi values at human NEP; recombinant human NEP, fluorogenic peptide substrate 10 μM, 37° C.
Description: The inhibitory activities of compounds at human and rat neprilysin (EC 3.4.24.11; NEP) and human angiotensin converting enzyme (ACE) were determined using in vitro assays as described below.
Recombinant human NEP and recombinant human ACE were obtained commercially (R&D Systems, Minneapolis, Minn., catalog numbers 1182-ZN and 929-ZN, respectively). The fluorogenic peptide substrate Mca-D-Arg-Arg-Leu-Dap-(Dnp)-OH (Medeiros et al. (1997) Braz. J. Med. Biol. Res. 30:1157-62; Anaspec, San Jose, Calif.) and Abz-Phe-Arg-Lys(Dnp)-Pro-OH (Araujo et al. (2000) Biochemistry 39:8519-8525; Bachem, Torrance, Calif.) were used in the NEP and ACE assays respectively.
The assays were performed in 384-well white opaque plates at 37° C. using the fluorogenic peptide substrates at a concentration of 10 μM in Assay Buffer (NEP: 50 mM HEPES, pH 7.5, 100 mM NaCl, 0.01% polyethylene glycol sorbitan monolaurate (Tween-20), 10 μM ZnSO4; ACE: 50 mM HEPES, pH 7.5, 100 mM NaCl, 0.01% Tween-20, 1 μM ZnSO4).
Test compounds were assayed over the range of concentrations from […] to 20 μM. Test compounds were added to the enzymes and incubated for 30 minute at 37° C. prior to initiating the reaction by the addition of substrate. Reactions were terminated after 20 minutes of incubation at 37° C. by the addition of glacial acetic acid to a final concentration of 3.6% (v/v).
Plates were read on a fluorometer with excitation and emission wavelengths set to 320 nm and 405 nm, respectively. Inhibition constants were obtained by nonlinear regression of the data using the equation (GraphPad Software, Inc., San Diego, Calif.): v=v0/[1+(I/K′)] where v is the reaction rate, v0 is the uninhibited reaction rate, I is the inhibitor concentration and K′ is the apparent inhibition constant.
Compounds of the invention were tested in this assay and found to have pKi values at human NEP as follows.

T1 sequence (P08473 whole entry): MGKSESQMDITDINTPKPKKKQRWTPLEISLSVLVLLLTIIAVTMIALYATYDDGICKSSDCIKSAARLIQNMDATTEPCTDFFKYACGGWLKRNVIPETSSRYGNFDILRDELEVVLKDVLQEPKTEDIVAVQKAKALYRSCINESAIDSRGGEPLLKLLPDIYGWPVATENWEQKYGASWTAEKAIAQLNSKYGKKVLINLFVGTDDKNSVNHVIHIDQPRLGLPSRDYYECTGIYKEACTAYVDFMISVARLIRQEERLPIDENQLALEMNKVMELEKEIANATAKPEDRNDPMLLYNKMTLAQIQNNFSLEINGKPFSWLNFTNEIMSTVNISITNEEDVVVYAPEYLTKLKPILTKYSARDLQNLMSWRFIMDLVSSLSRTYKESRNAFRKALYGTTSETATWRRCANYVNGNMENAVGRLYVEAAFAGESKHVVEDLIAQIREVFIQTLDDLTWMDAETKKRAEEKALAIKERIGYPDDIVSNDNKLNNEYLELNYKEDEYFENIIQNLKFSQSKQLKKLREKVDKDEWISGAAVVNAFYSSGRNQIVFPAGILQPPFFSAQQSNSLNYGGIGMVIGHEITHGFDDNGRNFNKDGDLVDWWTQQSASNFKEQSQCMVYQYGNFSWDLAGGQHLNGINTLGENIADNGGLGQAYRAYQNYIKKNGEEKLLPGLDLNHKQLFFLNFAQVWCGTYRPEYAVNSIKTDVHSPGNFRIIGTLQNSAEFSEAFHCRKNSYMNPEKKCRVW

SMILES	Ki
O=C(N[C@H](Cc1ccccc1Cl)[C@@H](O)C(=O)O)c1cncc(-c2ccccc2C(=O)O)c1 [Example 2-5, 2-{5-[(1R,2R)-2-Carboxy-1-(2-chloro-benzyl)-2-hydroxy-ethylcarbamoyl]-pyridin-3-yl}-benzoic acid]	1.26 to 10 nM
O=C(N[C@H](Cc1ccccc1Cl)[C@@H](O)C(=O)O)c1ccc(-c2ccccc2C(=O)O)nc1 [Example 2-8, 2-{5-[(1R,2R)-2-Carboxy-1-(2-chloro-benzyl)-2-hydroxy-ethylcarbamoyl]-pyridin-2-yl}-benzoic acid]	1.26 to 10 nM
Cc1cc(C(=O)N[C@H](Cc2ccccc2)[C@@H](O)C(=O)O)cc2[nH]nnc12 [Example 5-15, (2R,3R)-2-Hydroxy-3-[(7-methyl-3H-benzotriazole-5-carbonyl)-amino]-4-phenyl-butyric acid]	12.6 to 100 nM
O=C(N[C@H](Cc1ccccc1)[C@@H](O)C(=O)O)c1ccc(-c2ccccc2C(=O)O)nc1 [Example 5-21, 2-[5-((1R,2R)-1-Benzyl-2-carboxy-2-hydroxy-ethylcarbamoyl)-pyridin-2-yl]-benzoic acid]	1.26 to 10 nM
COc1ccc(Cn2oc(C(=O)N[C@H](Cc3ccccc3Cl)[C@@H](O)C(=O)O)cc2=O)c(F)c1F [Example 2-17, (2R,3R)-4-(2-Chloro-phenyl)-3-{[2-(2,3-difluoro-4-methoxy-benzyl)-3-oxo-2,3-dihydro-isoxazole-5-carbonyl]-amino}-2-hydroxy-butyric acid]	1.26 to 10 nM
O=C(O)C[C@@H](Cc1ccccc1Cl)NC(=O)c1ccc(-c2ccccc2C(=O)O)nn1 [Example 7-9, 2-{6-[(R)-2-Carboxy-1-(2-chloro-benzyl)-ethylcarbamoyl]-pyridazin-3-yl}-benzoic acid]	12.6 to 100 nM
O=C(N[C@H](Cc1ccccc1Cl)[C@@H](O)C(=O)O)c1cc2n(n1)COc1ccccc1-2 [Example 2-24, (2R,3R)-4-(2-Chloro-phenyl)-2-hydroxy-3-[(5-oxa-3,3a-diazacyclopenta[a]naphthalene-2-carbonyl)-amino]-butyric acid]	1.26 to 10 nM
O=C(N[C@H](Cc1ccccc1Cl)[C@@H](O)C(=O)O)c1cc(-c2ccccc2Cl)no1 [Example 2-12, (2R,3R)-4-(2-Chloro-phenyl)-3-{[3-(2-chloro-phenyl)-isoxazole-5-carbonyl]-amino}-2-hydroxy-butyric acid]	1.26 to 10 nM
CCCc1nc2c(C)cc(C(=O)N[C@H](Cc3ccccc3)[C@@H](O)C(=O)O)cc2n1Cc1ccc(OC)cc1 [Example 5-7, (2R,3R)-2-Hydroxy-3-{[3-(4-methoxy-benzyl)-7-methyl-2-propyl-3H-benzoimidazole-5-carbonyl]-amino}-4-phenyl-butyric acid]	12.6 to 100 nM
O=C(N[C@H](Cc1ccccc1)[C@@H](O)C(=O)O)c1ccc(-c2ccccc2C(=O)O)cn1 [Example 5-24, 2-[6-((1R,2R)-1-Benzyl-2-carboxy-2-hydroxy-ethylcarbamoyl)-pyridin-3-yl]-benzoic acid]	12.6 to 100 nM
O=C(N[C@H](Cc1ccccc1)[C@@H](O)C(=O)O)c1cnc2nn[nH]c2c1 [Example 5-29, (2R,3R)-2-Hydroxy-4-phenyl-3-[(1H-[1,2,3]triazolo[4,5-b]pyridine-6-carbonyl)-amino]-butyric acid]	12.6 to 100 nM
O=C(N[C@H](Cc1ccccc1)[C@@H](O)C(=O)O)c1cc(Cl)c2nn[nH]c2c1 [Example 5-13, (2R,3R)-3-[(7-Chloro-3H-benzotriazole-5-carbonyl)-amino]-2-hydroxy-4-phenyl-butyric acid]	12.6 to 100 nM
O=C(N[C@H](Cc1ccccc1C(F)(F)F)[C@@H](O)C(=O)O)c1cnc2[nH]nnc2c1 [Example 3, (2R,3R)-2-Hydroxy-3-[(3H-[1,2,3]triazolo[4,5-b]pyridine-6-carbonyl)-amino]-4-(2-trifluoromethyl-phenyl)-butyric acid]	1.26 to 10 nM
O=C(N[C@H](Cc1ccccc1Cl)[C@@H](O)C(=O)O)c1cnc(-c2ccccc2C(=O)O)c(Cl)c1 [Example 2-9, 2-{5-[(1R,2R)-2-Carboxy-1-(2-chloro-benzyl)-2-hydroxy-ethylcarbamoyl]-3-chloro-pyridin-2-yl}-benzoic acid]	1.26 to 10 nM
O=C(N[C@H](Cc1ccccc1Cl)[C@@H](O)C(=O)O)c1cc2n(n1)CCOc1ccccc1-2 [Example 2-26, (2R,3R)-4-(2-Chloro-phenyl)-3-[(4,5-dihydro-6-oxa-3,3a-diaza-benzo[e]azulene-2-carbonyl)-amino]-2-hydroxy-butyric acid]	1.26 to 10 nM
O=C1CCC(C(=O)N[C@H](Cc2ccccc2Cl)[C@@H](O)C(=O)O)=NN1 [Example 2-39, (2R,3R)-4-(2-Chloro-phenyl)-2-hydroxy-3-[(6-oxo-1,4,5,6-tetrahydro-pyridazine-3-carbonyl)-amino]-butyric acid]	12.6 to 100 nM
O=C(N[C@H](Cc1ccccc1Cl)[C@@H](O)C(=O)O)c1cnc(O)c(-c2ccccc2C(=O)O)c1 [Example 2-7, 2-{5-[(1R,2R)-2-Carboxy-1-(2-chloro-benzyl)-2-hydroxy-ethylcarbamoyl]-2-hydroxy-pyridin-3-yl}-benzoic acid]	≤ 1 nM
O=C(N[C@H](Cc1ccccc1)[C@@H](O)C(=O)O)c1ccnc(-c2ccccc2C(=O)O)c1 [Example 5-22, 2-[4-((1R,2R)-1-Benzyl-2-carboxy-2-hydroxy-ethylcarbamoyl)-pyridin-2-yl]-benzoic acid]	1.26 to 10 nM
Cc1cc(-c2ccccc2C(=O)O)cc(C(=O)N[C@H](Cc2ccccc2Cl)[C@@H](O)C(=O)O)n1 [Example 2-1, 2-{2-[(1R,2R)-2-Carboxy-1-(2-chloro-benzyl)-2-hydroxy-ethylcarbamoyl]-6-methyl-pyridin-4-yl}-benzoic acid]	≤ 1 nM
O=C(N[C@H](Cc1ccccc1Cl)[C@H](O)C(=O)O)c1cc(F)c2nn[nH]c2c1 [Example 2-27, (2S,3R)-4-(2-Chloro-phenyl)-3-[(7-fluoro-3H-benzotriazole-5-carbonyl)-amino]-2-hydroxy-butyric acid]	1.26 to 10 nM
O=C(N[C@H](Cc1ccccc1)[C@@H](O)C(=O)O)c1cncc(-c2ccccc2C(=O)O)c1 [Example 5-25, 2-[5-((1R,2R)-1-Benzyl-2-carboxy-2-hydroxy-ethylcarbamoyl)-pyridin-3-yl]-benzoic acid]	1.26 to 10 nM
CCCc1nc2c(C)cc(C(=O)N[C@H](Cc3ccccc3)[C@@H](O)C(=O)O)cc2n1CC(N)=O [Example 5-8, (2R,3R)-3-[(3-Carbamoylmethyl-7-methyl-2-propyl-3H-benzoimidazole-5-carbonyl)-amino]-2-hydroxy-4-phenyl-butyric acid]	12.6 to 100 nM
O=C(N[C@H](Cc1ccccc1Cl)[C@@H](O)C(=O)O)c1ccc2ncc(Br)n2c1 [Example 2-33, (2R,3R)-3-[(3-Bromo-imidazo[1,2-a]pyridine-6-carbonyl)-amino]-4-(2-chloro-phenyl)-2-hydroxy-butyric acid]	12.6 to 100 nM
O=C(O)c1ccc(C(=O)N[C@H](Cc2ccccc2)[C@@H](O)C(=O)O)s1 [Example 5-31, 5-((1R,2R)-1-Benzyl-2-carboxy-2-hydroxy-ethylcarbamoyl)-thiophene-2-carboxylic acid]	1.26 to 10 nM
O=C(N[C@H](Cc1ccccc1Cl)[C@@H](O)C(=O)O)c1cc(-c2ccccc2Cl)on1 [Example 2-15, (2R,3R)-4-(2-Chloro-phenyl)-3-{[5-(2-chloro-phenyl)-isoxazole-3-carbonyl]-amino}-2-hydroxy-butyric acid]	1.26 to 10 nM
O=C(N[C@H](Cc1ccccc1Cl)[C@@H](O)C(=O)O)c1cnc(-c2ccccc2)o1 [Example 2-18, (2R,3R)-4-(2-Chloro-phenyl)-2-hydroxy-3-[(2-phenyl-oxazole-5-carbonyl)-amino]-butyric acid]	12.6 to 100 nM
O=C(N[C@H](Cc1ccccc1)[C@@H](O)C(=O)O)c1cnc(-c2ccccc2C(=O)O)cn1 [Example 5-19, 2-[5-((1R,2R)-1-Benzyl-2-carboxy-2-hydroxy-ethylcarbamoyl)-pyrazin-2-yl]-benzoic acid]	12.6 to 100 nM
CCCc1nc2c(C)cc(C(=O)N[C@H](Cc3ccccc3)[C@@H](O)C(=O)O)cc2n1Cc1ccc(Br)nc1 [Example 5-2, (2R,3R)-3-{[3-(6-Bromo-pyridin-3-ylmethyl)-7-methyl-2-propyl-3H-benzoimidazole-5-carbonyl]-amino}-2-hydroxy-4-phenyl-butyric acid]	12.6 to 100 nM
O=C(O)C[C@@H](Cc1ccccc1Cl)NC(=O)c1cc(-c2ccccc2C(=O)O)ccn1 [Example 6, 2-{2-[(R)-1-Carboxymethyl-2-(2-chloro-phenyl)-ethylcarbamoyl]-pyridin-4-yl}-benzoic Acid]	1.26 to 10 nM
CCCc1nc2c(C)cc(C(=O)N[C@H](Cc3ccccc3)[C@@H](O)C(=O)O)cc2n1Cc1ccccc1OC [Example 5-6, (2R,3R)-2-Hydroxy-3-{[3-(2-methoxy-benzyl)-7-methyl-2-propyl-3H-benzoimidazole-5-carbonyl]-amino}-4-phenyl-butyric acid]	12.6 to 100 nM
